Values joined by “and” are separate entries in the source; they are usually repeats but may differ in a detail not shown here. Equal entries are not always repeated.
Assays:
[1] = test system: CC(=O)OCC1=C(C(=O)O)N2C(=O)[C@@H](NC(=O)Cc3cccs3)[C@H]2SC1; assay: purified protein, by the assay type; details: 37.0 °C
KPC-2 = biological target: T1, KPC-2 (Klebsiella pneumoniae, UniProt Q9F663); assay: Enzyme inhibition assay (spectrophotometric, cephalothin reporter substrate); type: biochemical; details: mean of two replicates, five inhibitor concentrations, Dixon plot; pH 7.5, 25 °C
T1 construct: made in house; host or cells: E. coli BL21(DE3), pET9-KPC2
T1 sequence (Q9F663 25-293 limits assumed): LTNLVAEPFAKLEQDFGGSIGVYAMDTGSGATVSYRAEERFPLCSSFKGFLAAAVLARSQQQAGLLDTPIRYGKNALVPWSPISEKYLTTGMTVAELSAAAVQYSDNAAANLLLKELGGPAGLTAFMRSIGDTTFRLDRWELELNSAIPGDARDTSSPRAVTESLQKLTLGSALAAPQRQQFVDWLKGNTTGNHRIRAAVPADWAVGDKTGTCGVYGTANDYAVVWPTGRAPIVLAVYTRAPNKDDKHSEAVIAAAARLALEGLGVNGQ
Experimental: (§1) To obtain a well-characterized inhibition profile for each selected boronic acids against each BLs in the panel, the compounds were tested for inhibitory activity. The protein panel included clinically- and epidemiologically-relevant β-lactamases, representatives of each structural class (A to D), as mentioned above. Each BL was overexpressed in E. coli, purified by chromatography and characterized as already reported. (SI, Table S1)[40]–[45].
(§2) Reactions were initiated with addition of BL enzyme (the concentration values for each BL enzyme into the SI, Table S1 have been reported).

[2] = test system: P. aeruginosa 120, overproduction chromosomal AmpC; assay: Susceptibility testing (MIC), synergy with ceftazidime; type: cell-based; details: antibiotic:inhibitor 1:1 (w/w)
Experimental: (§3) The minimum inhibitory concentrations (MICs), for CAZ and CTX alone and in combination with boronic acids against resistant strains were determined (Table 2a,b).
(§4) Susceptibility testing was performed in Mueller Hinton broth and interpreted following the guidelines of the National Committee for Clinical Laboratory Standards[70]. To test the inhibitory activity, the compounds were dissolved in DMSO, 50% in water, and further dilutions were performed using growth medium. In all cases tests were performed at a final DMSO concentration below 5%, avoiding unwanted DMSO inhibition effect on strains growth (blank test control with DMSO were performed). The MICs of cefotaxime and ceftazidime alone and in association were determined against several relevant Gram-negative clinical isolates, selected from the pathogen collection of the Spanish Network for Research in Infectious Pathology (REIPI; Spain). The selection was based on strains capability of producing β-lactamases of interest for the present study. The antibiotic:inhibitor ratio was 1:1 (w/w).

[3] = test system: E. coli clinical isolate, overproduction chromosomal AmpC; assay: as above; type: cell-based; details: antibiotic:inhibitor 1:1 (w/w)
Experimental: as §3, §4

[4] = test system: P. aeruginosa 49, overproduction chromosomal AmpC; assay: as above; type: cell-based; details: antibiotic:inhibitor 1:1 (w/w)
Experimental: as §3, §4

[5] = test system: P. aeruginosa 12, overproduction chromosomal AmpC; assay: as above; type: cell-based; details: antibiotic:inhibitor 1:1 (w/w)
Experimental: as §3, §4

[6] = test system: E. coli clinical isolate, plasmidic AmpC - DHA1; assay: as above; type: cell-based; details: for MIC of ceftazidime (CAZ) in combination with compound: E. coli, plasmidic AmpC - DHA1, antibiotic:inhibitor 1:1 (w/w)
Experimental: as §3, §4

[7] = test system: P. aeruginosa 148, overproduction chromosomal AmpC; assay: as above; type: cell-based; details: antibiotic:inhibitor 1:1 (w/w)
Experimental: as §3, §4

[8] = test system: P. aeruginosa 199, overproduction chromosomal AmpC; assay: as above; type: cell-based; details: antibiotic:inhibitor 1:1 (w/w)
Experimental: as §3, §4

[9] = test system: KPC-2 K. pneumoniae clinical isolate; assay: Susceptibility testing (MIC), synergy with cefotaxime; type: cell-based; details: for MIC of cefotaxime (CTX) in combination with compound: KPC-2 K. pneumoniae, antibiotic:inhibitor 1:1 (w/w)
Experimental: as §3, §4

[10] = test system: CTX-M-15 E. coli clinical isolate; assay: as above; type: cell-based; details: for MIC of cefotaxime (CTX) in combination with compound: CTX-M-15 E. coli, antibiotic:inhibitor 1:1 (w/w)
Experimental: as §3, §4

[11] = test system: NDM-1 E. coli clinical isolate; assay: as above; type: cell-based; details: antibiotic:inhibitor 1:1 (w/w)
Experimental: as §3, §4

[12] = test system: VIM-2 P. aeruginosa clinical isolate; assay: as above; type: cell-based; details: antibiotic:inhibitor 1:1 (w/w)
Experimental: as §3, §4

[13] = test system: OXA-24 A. baumanii clinical isolate; assay: as above; type: cell-based; details: antibiotic:inhibitor 1:1 (w/w)
Experimental: as §3, §4

VIM-2 = VIM-2 (Escherichia coli, UniProt Q5U7L7); assay: Enzyme inhibition assay (spectrophotometric, cephalothin reporter substrate); type: biochemical; parameters: made in house; host or cells: E. coli BL21(DE3), pET9-VIM-2; details: mean of two replicates, five inhibitor concentrations, Dixon plot; pH 7.5, 25 °C
Experimental: as §1, §2

NDM-1 = NDM-1 (Klebsiella pneumoniae, UniProt C7C422); assay: as above; type: biochemical; parameters: His-tag; made in house; host or cells: E. coli BL21(DE3), pET-15-NDM-1; details: mean of two replicates, five inhibitor concentrations, Dixon plot; pH 7.5, 25 °C
Chain of NDM-1 (C7C422 29-270 limits assumed): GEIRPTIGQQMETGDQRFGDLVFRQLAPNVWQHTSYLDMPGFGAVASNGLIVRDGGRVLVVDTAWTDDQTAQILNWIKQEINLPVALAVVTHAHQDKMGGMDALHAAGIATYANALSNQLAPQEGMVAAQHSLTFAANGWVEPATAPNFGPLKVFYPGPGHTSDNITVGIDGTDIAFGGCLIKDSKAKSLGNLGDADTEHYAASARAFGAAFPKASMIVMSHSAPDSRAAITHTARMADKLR
Experimental: as §1, §2

CTX-M-15 = biological target: T2, CTX-M-15 (Escherichia coli, UniProt Q9EXV5); assay: as above; type: biochemical; details: IC50 CTX-M-15, mean of two replicates, five inhibitor concentrations, Dixon plot; pH 7.5, 25 °C
T2 construct: made in house; host or cells: E. coli BL21(DE3), pET-9a derivative (pET-CTX-M-15)
T2 sequence (Q9EXV5 entry or part of it): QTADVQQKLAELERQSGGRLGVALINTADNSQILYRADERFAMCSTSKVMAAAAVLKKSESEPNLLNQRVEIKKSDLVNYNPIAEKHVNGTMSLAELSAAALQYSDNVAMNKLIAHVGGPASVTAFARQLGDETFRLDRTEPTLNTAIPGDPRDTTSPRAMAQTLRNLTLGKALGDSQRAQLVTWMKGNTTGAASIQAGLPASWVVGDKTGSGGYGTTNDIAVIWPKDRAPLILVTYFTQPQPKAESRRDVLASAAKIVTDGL
Experimental: as §1, §2
(§5) From the resulting inhibition percentages at each different inhibitor concentration and, assuming a competitive inhibition for the boronic compounds panel, it was possible to calculate the IC50 values from the Dixon plot 1/V vs [I], using the equation IC50 = […][61], where v0 is the rate of hydrolysis of the reporter substrate (v0 being the rate measured in the absence of inhibitor), q the y axis intercept and m the slope of the resulting linear regression.

OXA-24 = biological target: T3, OXA-24 (Acinetobacter baumannii, UniProt Q8RLA6); assay: as above; type: biochemical
T3 construct: GST (N, cleaved yes); made in house; host or cells: E. coli DH5α, pGEX-2T-OXA-24
T3 sequence (Q8RLA6 22-275 limits assumed): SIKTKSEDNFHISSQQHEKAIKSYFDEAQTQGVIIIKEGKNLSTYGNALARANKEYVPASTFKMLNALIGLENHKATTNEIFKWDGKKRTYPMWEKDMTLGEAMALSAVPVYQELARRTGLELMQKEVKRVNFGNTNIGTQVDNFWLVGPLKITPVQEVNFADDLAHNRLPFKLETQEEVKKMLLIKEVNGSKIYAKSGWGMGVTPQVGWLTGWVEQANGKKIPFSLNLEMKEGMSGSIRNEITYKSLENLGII
Experimental: as §1, §2, §5

AmpC β-lactamase = biological target: T4, AmpC β-lactamase (Pseudomonas aeruginosa, UniProt P24735); assay: as above; type: biochemical, P. aeruginosa; details: mean of two replicates, five inhibitor concentrations, Dixon plot, 100 μM cephalothin, pH 7.5, 25 °C
T4 construct: made in house; host or cells: E. coli BL21(DE3), plasmid pET-9aAmpC
T4 sequence (P24735 27-397): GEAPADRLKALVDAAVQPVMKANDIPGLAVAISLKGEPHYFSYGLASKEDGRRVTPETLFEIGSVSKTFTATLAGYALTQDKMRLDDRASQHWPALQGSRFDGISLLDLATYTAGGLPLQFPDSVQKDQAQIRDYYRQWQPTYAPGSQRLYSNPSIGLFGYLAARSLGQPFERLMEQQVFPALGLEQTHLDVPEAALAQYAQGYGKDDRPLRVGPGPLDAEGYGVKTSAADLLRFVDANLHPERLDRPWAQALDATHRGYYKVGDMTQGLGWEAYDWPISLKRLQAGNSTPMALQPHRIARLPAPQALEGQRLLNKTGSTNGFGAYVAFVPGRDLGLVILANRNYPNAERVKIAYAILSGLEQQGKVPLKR
Experimental: as §1, §2, §5

[14] = test system: E. aerogenes clinical isolate, overproduction chromosomal AmpC; assay: Susceptibility testing (MIC), synergy with ceftazidime; type: cell-based; details: antibiotic:inhibitor 1:1 (w/w)
Experimental: as §3, §4

[15] = test system: E. cloacae clinical isolate, overproduction chromosomal AmpC; assay: as above; type: cell-based; details: for MIC of ceftazidime (CAZ) in combination with compound: overproduction chromosomal AmpC, antibiotic:inhibitor 1:1 (w/w)
Experimental: as §3, §4

[16] = other: β-lactam substrate of CTX-M-15, enzyme 0.067 µM
[17] = other: β-lactam substrate of AmpC, enzyme 0.019 µM
[18] = other: β-lactam substrate of OXA-24, enzyme 0.035 µM

Row | Compound | IC50 (KPC-2) | MIC of ceftazidime (CAZ) in combination with compound [2] [µg/mL] | MIC of ceftazidime (CAZ) in combination with compound [3] [µg/mL] | MIC of ceftazidime (CAZ) in combination with compound [4] [µg/mL] | MIC of ceftazidime (CAZ) in combination with compound [5] [µg/mL] | MIC of ceftazidime (CAZ) in combination with compound [6] [µg/mL] | MIC of ceftazidime (CAZ) in combination with compound [7] [µg/mL] | MIC of ceftazidime (CAZ) in combination with compound [8] [µg/mL] | MIC of cefotaxime (CTX) in combination with compound [9] [µg/mL] | MIC of cefotaxime (CTX) in combination with compound [10] [µg/mL] | MIC of cefotaxime (CTX) in combination with compound [11] [µg/mL] | MIC of cefotaxime (CTX) in combination with compound [12] [µg/mL] | MIC of cefotaxime (CTX) in combination with compound [13] [µg/mL] | IC50 (VIM-2) [µM] | IC50 (NDM-1) [µM] | IC50 (CTX-M-15) | IC50 (OXA-24) [µM] | IC50 (AmpC β-lactamase) | MIC of ceftazidime (CAZ) in combination with compound [14] [µg/mL] | MIC of ceftazidime (CAZ) in combination with compound [15] [µg/mL] | further results
1 | CTX-M-15 (Escherichia coli) |  |  |  |  |  |  |  |  |  |  |  |  |  |  |  |  |  |  |  |  | Km [1, 16]: 41 ± 3 µM; kcat [1, 16]: 35 ± 7 s⁻¹; kcat/Km [1, 16]: 850000 M⁻¹ s⁻¹
2 | CC(C)(C)OC(=O)c1cccc2cc(B3OC(C)(C)C(C)(C)O3)sc12 [Compound 4] | 8.22 µM and 5.4 µM | 4 | 512 | 64 | 32 | 512 | 32 | 64 | 4 | 64 | 1024 | 1024 | 64 | 20.2 ± 0.07 | 35.7 ± 7.46 | 4.49 µM and 4.5 µM | 38 ± 7.64 | 3.88 µM and 3.9 µM |  |  | 
3 | Cc1ccc2sc(B3OC(C)(C)C(C)(C)O3)cc2c1 [Compound 1] | 5.9 ± 1.64 µM | 4 | 16 | 4 | 4 | 64 | 8 | 16 | 4 | 64 | 1024 | 1024 | 64 | 72 ± 14.7 | 68.4 ± 14 | 6.4 ± 1.52 µM | 113 ± 14.6 | 0.4 ± 0.08 µM | 4 | 64 | MIC reduction of CAZ (fold) ([6]; DHA-1-producing E. coli strain, CAZ combination): 8 fold; MIC decrease of CAZ (fold) / synergy ([15]; CAZ combination): 4 fold; MIC reduction of CTX (fold) ([9]; K. pneumoniae producing KPC-2, CTX combination): 32 fold
4 | CC(C)(C)OC(=O)Nc1cccc2cc(B(O)O)sc12 [Compound 6] | 2.25 µM and 2.3 µM | 4 | 64 | 64 | 64 | 512 | 64 | 64 | 4 | 16 | 64 |  | 16 | 103 ± 14.2 | 117 ± 9.72 | 9.8 ± 3.34 µM | 88 ± 14 | 4.4 ± 0.83 µM |  | 64 | 
5 | CC1(C)OB(c2cc3cc(CBr)ccc3s2)OC1(C)C [Compound 2] | 4.7 ± 2.04 µM | 2 | 16 | 4 | 4 | 32 | 8 | 16 | 4 | 64 | 1024 |  | 64 | 83.5 ± 3.35 | 64.6 ± 7.88 | 8.3 ± 1.09 µM | 93 ± 18.4 | 0.2 ± 0.04 µM | 4 |  | 
6 | AmpC (Pseudomonas aeruginosa PAO1) |  |  |  |  |  |  |  |  |  |  |  |  |  |  |  |  |  |  |  |  | Km [1, 17]: 33 ± 2 µM; kcat [1, 17]: 159 ± 32 s⁻¹; kcat/Km [1, 17]: 4.82e+06 M⁻¹ s⁻¹
7 | NCc1ccc2sc(B(O)O)cc2c1 [Compound 3] | 7.3 ± 1.82 µM | 4 | 16 | 64 | 64 | 512 | 4 | 64 | 4 | 64 | 32 | 8 | 64 | 26.9 ± 7.07 | 60.7 ± 11.8 | 5.2 ± 1.42 µM | 132 ± 20.9 | 0.16 ± 0.06 µM |  | 64 | 
8 | CC1(C)OB(c2cc3cccc(C(=O)O)c3s2)OC1(C)C [Compound 5] | 5.38 µM and 8.2 µM | 4 | 64 | 32 | 16 | 512 | 32 | 16 | 4 | 16 | 1024 | 1024 | 16 | 27.7 ± 3.65 | 32.4 ± 7.14 | 9.4 ± 3.48 µM | 23 ± 4.38 | 1.3 ± 0.01 µM | 32 | 64 | MIC reduction of CTX (fold) ([10]; E. coli producing CTX-M-15, CTX combination): 4 fold
9 | OXA-24 (Acinetobacter baumannii) |  |  |  |  |  |  |  |  |  |  |  |  |  |  |  |  |  |  |  |  | Km [1, 18]: 20 ± 2 µM; kcat [1, 18]: 1000 ± 150 s⁻¹; kcat/Km [1, 18]: 5e+07 M⁻¹ s⁻¹
